Reference: publication PMC12053652, “Transport and inhibition mechanisms of human creatine transporter” (Cell Discovery, 2025)

Tests used:
[1] = biological target: T1, human creatine transporter (CRT) (Homo sapiens, UniProt P48029); experiment: cryo-EM structure ([…] Å); IC50 from […]creatine uptake inhibition in HEK293 cells; assay type: cell-based
T1 construct: gene SLC6A8; full-length wild-type
T1 sequence (P48029 1-635): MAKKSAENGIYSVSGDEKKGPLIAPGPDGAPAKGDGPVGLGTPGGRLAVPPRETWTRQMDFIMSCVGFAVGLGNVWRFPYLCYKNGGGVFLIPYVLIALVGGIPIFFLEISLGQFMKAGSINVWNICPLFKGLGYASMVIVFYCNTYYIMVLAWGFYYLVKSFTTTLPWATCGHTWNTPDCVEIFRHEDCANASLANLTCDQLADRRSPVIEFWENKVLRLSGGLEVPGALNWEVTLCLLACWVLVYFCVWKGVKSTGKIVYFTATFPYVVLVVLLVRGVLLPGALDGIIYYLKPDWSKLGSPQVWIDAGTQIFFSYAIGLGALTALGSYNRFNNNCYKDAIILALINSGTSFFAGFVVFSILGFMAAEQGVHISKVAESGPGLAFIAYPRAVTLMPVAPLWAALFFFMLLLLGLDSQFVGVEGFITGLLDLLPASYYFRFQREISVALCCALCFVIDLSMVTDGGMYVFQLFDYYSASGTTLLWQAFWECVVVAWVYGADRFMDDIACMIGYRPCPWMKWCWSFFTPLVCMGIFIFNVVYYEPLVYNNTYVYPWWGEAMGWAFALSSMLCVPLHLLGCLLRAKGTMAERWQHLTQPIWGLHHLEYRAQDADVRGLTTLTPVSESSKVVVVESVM

[2] = substrate: CN(CC(=O)O)C(=N)N; experiment: cells, lysate or membranes; assay type: cell-based, Homo sapiens; conditions: Na+ and Cl- (Na+[…] and Cl- in the structure) central binding site; Tyr148, Ser417, Ala69, Phe315, Gly73; guanidine group surrounded by Phe68, Tyr148, Phe315; contacts Na+[…]

Molecule: N=C(N)NCCC(=O)O [RGX, RGX-202]
- IC50 [1]: 53 µM

B1: human creatine transporter (CRT) (Homo sapiens) (protein)
chain: MAKKSAENGIYSVSGDEKKGPLIAPGPDGAPAKGDGPVGLGTPGGRLAVPPRETWTRQMDFIMSCVGFAVGLGNVWRFPYLCYKNGGGVFLIPYVLIALVGGIPIFFLEISLGQFMKAGSINVWNICPLFKGLGYASMVIVFYCNTYYIMVLAWGFYYLVKSFTTTLPWATCGHTWNTPDCVEIFRHEDCANASLANLTCDQLADRRSPVIEFWENKVLRLSGGLEVPGALNWEVTLCLLACWVLVYFCVWKGVKSTGKIVYFTATFPYVVLVVLLVRGVLLPGALDGIIYYLKPDWSKLGSPQVWIDAGTQIFFSYAIGLGALTALGSYNRFNNNCYKDAIILALINSGTSFFAGFVVFSILGFMAAEQGVHISKVAESGPGLAFIAYPRAVTLMPVAPLWAALFFFMLLLLGLDSQFVGVEGFITGLLDLLPASYYFRFQREISVALCCALCFVIDLSMVTDGGMYVFQLFDYYSASGTTLLWQAFWECVVVAWVYGADRFMDDIACMIGYRPCPWMKWCWSFFTPLVCMGIFIFNVVYYEPLVYNNTYVYPWWGEAMGWAFALSSMLCVPLHLLGCLLRAKGTMAERWQHLTQPIWGLHHLEYRAQDADVRGLTTLTPVSESSKVVVVESVM
notes: full-length wild-type
- Km [2]: 106.3 µM
